Test results from publication PMC7016908 (ACS Omega, 2020).
Values joined by “and” are separate entries in the source; they are usually repeats but may differ in a detail not shown here. Identical values can stand only once. “Also recorded” adds a separate entry of the source.

Experiments:
LSD-trained rats = conditions: ref [6],[7]; cited from earlier work
5-HT2A receptor [1] = conditions: ref Trachsel et al., 2009 [23]; cited from earlier work
5-HT2A receptor [2] = conditions: ref Trachsel et al., 2009 [23]; cited from earlier work; remark: listed apart in the source
human 5-HT2A receptor [3] = molecular target: T1, human 5-HT2A receptor (Homo sapiens, UniProt P28223); assay: Functional Ca2+ mobilization fluorescence assay in CHO-5-HT2A cells; type: cell-based; conditions: for Emax at 100 µM: read-out: % Emax 5-HT2A, % maximum response (5-HT) at 100 μM; for agonist character at 5-HT2A receptor: in words
T1 sequence (P28223 whole entry): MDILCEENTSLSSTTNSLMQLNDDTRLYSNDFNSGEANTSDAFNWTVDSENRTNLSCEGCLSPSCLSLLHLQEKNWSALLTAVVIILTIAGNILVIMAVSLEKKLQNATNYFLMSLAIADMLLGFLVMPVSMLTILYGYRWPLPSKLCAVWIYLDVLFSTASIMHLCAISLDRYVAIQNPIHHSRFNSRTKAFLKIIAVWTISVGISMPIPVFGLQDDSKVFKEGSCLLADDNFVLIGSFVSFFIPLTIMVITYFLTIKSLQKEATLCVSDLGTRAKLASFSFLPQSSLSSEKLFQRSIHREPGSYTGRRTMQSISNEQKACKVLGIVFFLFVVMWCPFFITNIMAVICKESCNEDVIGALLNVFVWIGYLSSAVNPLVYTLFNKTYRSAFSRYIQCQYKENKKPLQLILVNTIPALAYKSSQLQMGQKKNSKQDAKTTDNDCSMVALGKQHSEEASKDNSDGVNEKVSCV

human 5-HT2C receptor [4] = molecular target: T2, human 5-HT2C receptor (Homo sapiens, UniProt P28335); assay: Radioligand displacement binding, [3H]mesulergine, HeLa-5-HT2C cell membranes; conditions: for Ki: [3H]mesulergine displacement, mean ± range of two independent assays; for 5-HT2A/2C: ratio of Ki 5-HT2A / Ki 5-HT2C; for selectivity for the 5-HT2C receptor: 5-HT2C over 5-HT2A
T2 sequence (P28335 33-458): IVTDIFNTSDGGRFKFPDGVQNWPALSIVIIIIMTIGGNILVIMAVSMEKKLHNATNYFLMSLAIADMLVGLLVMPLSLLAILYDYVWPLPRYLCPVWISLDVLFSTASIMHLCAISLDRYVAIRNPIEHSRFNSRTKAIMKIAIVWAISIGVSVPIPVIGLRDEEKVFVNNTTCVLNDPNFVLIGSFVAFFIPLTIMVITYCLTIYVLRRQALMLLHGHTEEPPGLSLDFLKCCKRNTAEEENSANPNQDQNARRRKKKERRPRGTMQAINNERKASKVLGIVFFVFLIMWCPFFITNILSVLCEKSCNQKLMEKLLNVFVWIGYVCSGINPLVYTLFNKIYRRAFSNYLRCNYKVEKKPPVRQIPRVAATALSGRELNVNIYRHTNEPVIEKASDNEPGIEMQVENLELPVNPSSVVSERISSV

[5] = hydrochlorides; ref [12],[13]; cited from earlier work
human 5-HT2A receptor [6] = molecular target: T1, human 5-HT2A receptor; assay: biochemical; type: binding; conditions: for displacement of [3H]ketanserin from the human 5-HT2A receptor: at 10 μM concentration
human 5-HT2C receptor [7] = molecular target: T2, human 5-HT2C receptor; assay: Functional Ca2+ mobilization fluorescence assay in HeLa-5-HT2C cells; type: cell-based; conditions: for agonist character at 5-HT2C receptor: functional assay, in words; for Emax at 100 µM: read-out: % Emax 5-HT2C

Row | Structure (SMILES) | EC50 (human 5-HT2A receptor [3]) [µM] | Emax at 100 µM (human 5-HT2A receptor [3]) [%] | Ki at the human 5-HT2C receptor (in words) (human 5-HT2C receptor [4]) | Ki (human 5-HT2C receptor [4]; Ki 5-HT2C) | 5-HT2A/2C (human 5-HT2C receptor [4]) | Ki (human 5-HT2A receptor [6]) [µM] | displacement of [3H]ketanserin from the human 5-HT2A receptor (human 5-HT2A receptor [6]) [%] | agonist character at 5-HT2C receptor (human 5-HT2C receptor [7]) | Emax at 100 µM (human 5-HT2C receptor [7]) [%] | EC50 (human 5-HT2C receptor [7]) [µM] | other results
1 | NCCc1c2c(cc3c1OCC3)OCC2 [2C-H-Fly] |  |  |  |  |  |  |  |  |  |  | drug discrimination response (LSD-trained rats): positive drug discrimination response
2 | COc1cc(-c2ccccc2)c(OC)cc1CCN [2C-phenyl, 2-(2,5-dimethoxy-4-phenylphenyl)ethanamine] |  |  |  |  |  |  |  |  |  |  | pKi at the 5-HT2A receptor (5-HT2A receptor [1]): 6.11; functional character at 5-HT2A receptor (5-HT2A receptor [2]): antagonist
3 | Cl.NCCc1ccc2oc3ccccc3c2c1 [Compound 1, 2-(Dibenzo[b,d]furan-2-yl)ethanamine Hydrochloride] | 22.6 | 66.1 | submicromolar | 0.737 µM | > > 14 | > 10 | < 50 | extremely weak partial agonists | 49.1 |  | toxicity (in words) [5]: toxic
4 | CC(N)Cc1ccc2oc3ccccc3c2c1.Cl (centres unmarked) [Compound 2, 1-(Dibenzo[b,d]furan-2-yl)propan-2-amine Hydrochloride] |  | 64 | submicromolar | 0.474 µM | > > 21 | > 10 | < 50 | moderately potent full agonist activity | 112 | 3.52 ± 0.74 | 
5 | COc1cc2c(cc1CCN)oc1ccccc12.Cl [Compound 3, 2-(2-Methoxydibenzo[b,d]furan-3-yl)ethanamine Hydrochloride] | 32.4 | 58.2 | submicromolar | 0.204 µM | > 49 | > 10 | < 50 | extremely weak partial agonists | 54 | 53.2 | agonist character at 5-HT2A receptor (human 5-HT2A receptor [3]; functional assay): very weak partial agonist; toxicity (in words) [5]: toxic
6 | Cl.NCCc1cccc2c1oc1ccccc12 [Compound 4, 2-(Dibenzo[b,d]furan-4-yl)ethanamine Hydrochloride] | 3.33 ± 0.83 |  | submicromolar | 0.14 µM | > 71 | > 10 | < 50 | moderately potent full agonist activity; also recorded: full agonists | 98 | 1.38 ± 0.19 | % Emax 5-HT2A (human 5-HT2A receptor [3]; % maximum response (5-HT) at 100 μM): 88.21 ± 2.79%; EC50 at 5-HT2A receptor (in words) (human 5-HT2A receptor [3]; functional assay): low micromolar; selectivity for the 5-HT2C receptor (human 5-HT2C receptor [4]): > 70 fold; Ki (human 5-HT2C receptor [4]; pKi 5-HT2C): 0.145 µM
7 | COc1ccc2oc3ccccc3c2c1CCN.Cl [Compound 5, 2-(2-Methoxydibenzo[b,d]furan-1-yl)ethanamine Hydrochloride] | 14.5 | 59 |  | 0.035 µM and 0.0353 µM | 72 | 2.55 |  | full agonists | 106 | 0.222 ± 0.041 | agonist character at 5-HT2A receptor (human 5-HT2A receptor [3]; functional assay): partial agonist; times weaker as agonist at 5-HT2A than at 5-HT2C (human 5-HT2A receptor [3]; functional potency 5-HT2A vs 5-HT2C): 70 times; selectivity for the 5-HT2C receptor (human 5-HT2C receptor [4]): > 70 fold; Ki at the h5-HT2A receptor (in words) (human 5-HT2A receptor [6]): low micromolar
